This is an account of results in US9314024B2, “Herbicidal compositions comprising aminopyralid and bentazon” (Dow AgroSciences LLC, priority 2012, dated 2016).

Holding throughout (assay): Postemergence herbicidal activity, field trial in rice, Espinal, Colombia
Conditions in all cases: 29 DAA, postemergence foliar

The subject of assay [1] is Cyperus iria L. (rice flatsedge, CYPIR). The class given is in vivo. The method, then:
(§1) These trials were conducted under field conditions in Espinal, Colombia. Trial sites were located in commercially grown fields of common rice (Oryza sativa). The rice crop was grown using normal cultural practices for fertilization, seeding, and maintenance to ensure good growth of the crop and the weeds. The trials were conducted using normal research methodology. Trial plots were 2 meters (m) wide by 5 m long. All treatments were applied using a randomized complete block trial design with 4 replications per treatment. The trial sites had naturally occurring populations of weeds. The weed spectrum included, but was not limited to, Cyperus iria L. (rice flatsedge, CYPIR), Phyllanthus niruri L. (gripeweed, PYLNI) and Corchorus spp (jute, CRGSS). The plots were treated with a postemergence foliar application 19 days after emergence of the rice.
(§2) Treatments consisted of tank mixes of aminopyralid triisopropanolammonium salt (MILESTONE 240SL) and commercially available formulations of bentazon herbicide (BASAGRAN 480SL). The application volume was 200 liters per hectare (L/ha) of water. All application were made using precision gas hand sprayers with a 2 m boom using flat fan (8002) nozzles to broadcast the treatments over the top of the rice and weeds.
(§3) The treated plots and control plots were rated blind at various intervals after application. Ratings were based on Percent (%) Visual weed control, where 0 corresponds to no injury and 100 corresponds to complete kill.
(§4) Colby's equation was used to determine the herbicidal effects expected from the mixtures (Colby, S. R. Calculation of the synergistic and antagonistic response of herbicide combinations. Weeds 1967 15, 20-22).
(§5) The following equation was used to calculate the expected activity of mixtures containing two active ingredients, A and B: Expected=A+B−(A×B/100)
(§6) A=observed efficacy of active ingredient A at the same concentration as used in the mixture;
(§7) B=observed efficacy of active ingredient B at the same concentration as used in the mixture.

Assay [2] has as its system Phyllanthus niruri L. (gripeweed, PYLNI). The format is in vivo. The method, then: as §1, §2, §3, §4, §5, §6, §7
The test system of assay [3] is Corchorus spp (jute, CRGSS). The format is in vivo, Corchorus sp. On the procedure: as §1, §2, §3, §4, §5, §6, §7

Take `Nc1cc(Cl)nc(C(=O)O)c1Cl` [Aminopyralid, 4-amino-3,6-dichloro-2-pyridinecarboxylic acid]: the results for the “Visual Weed Control (%) CYPIR Obs” value in assay [1] (aminopyralid 4 g ae/ha alone), in assay [1] (aminopyralid 8 g ae/ha alone) and in assay [1] (aminopyralid 16 g ae/ha alone) were 0%, 0% and 41%, respectively. In addition, the “Visual Weed Control (%) PYLNI Obs” value in assay [2] (aminopyralid 4 g ae/ha alone), in assay [2] (aminopyralid 8 g ae/ha alone) and in assay [2] (aminopyralid 16 g ae/ha alone) was 0% in each case. Also, the “Visual Weed Control (%) CRGSS Obs” value in assay [3] (aminopyralid 4 g ae/ha alone) was 48%; in assay [3] (aminopyralid 8 g ae/ha alone) it was 70%.

Consider `CC(C)N1C(=O)c2ccccc2NS1(=O)=O` [Bentazon, 3-(1-methylethyl)-1H-2,1,3-benzothiadiazin-4(3H)-one 2,2-dioxide], for which the “Visual Weed Control (%) CYPIR Obs” value in assay [1] (bentazon 180 g ai/ha alone) is on record as 74%. Also, the “Visual Weed Control (%) PYLNI Obs” value in assay [2] (bentazon 180 g ai/ha alone) turned out to be 19%. Moreover, the “Visual Weed Control (%) CRGSS Obs” value in assay [3] (bentazon 180 g ai/ha alone) came out at 80%.
